Data: patent publication US6469142B1, “Human N-methyl-D-aspartate receptor subunits, nucleic acids encoding same and uses therefor” (Merck & Co., Inc., priority 1993, dated 2002)

What was measured:
[1] = test system: recombinant human NMDA receptors; assay: Antagonist block of agonist-induced currents in oocytes injected with NMDA receptor subunit transcripts (summary of Table 1); format: cell-based; settings: 0.1-1.0 mM MgCl2 or 1 μM MK801
Method: (§1) Xenopus oocytes were injected with in vitro transcripts prepared from constructs containing DNA encoding human NMDA receptor NMDAR1 and NMDAR2 subunits. Electrophysiological measurements of the oocyte transmembrane currents were made using the two-electrode voltage clamp technique (see e.g., Stuhmer (1992) Meth. Enzymol. 207:319-339).
Xenopus oocytes were injected with 12.5-50 ng of one or more NMDA receptor subunit transcripts per oocyte. The preparation and injection of oocytes were carried out as described by Dascal [(1987) Crit. Rev. Biochem. 22:317-387]. Two-to-six days following mRNA injection, the oocytes were examined using the two-electrode voltage clamp technique. The cells were bathed in Ringer's solution (115 mM NaCl, 2.5 mM KCl, 1.8 mM CaCl2, 10 mM HEPES, pH 7.3), and the membrane potential was clamped at −80 to −100 mV. Drugs were applied by pipetting 6.0 μl aliquots of drug-containing solution directly into the bath, or by using gravity-feed into a Warner Instruments chamber (volume=110 μl) at a flow rate of 8 ml/min. The data were sampled at 2-5 Hz with a Labmaster data acquisition board in a PC-386 using AXOTAPE version 1.2 (Axon Instruments, Foster City, Calif.) software. The data were exported to a laser printer or plotted using Sigmaplot version 5.0. […]

[2] = target: NMDA receptors; assay: [3H]-CGP39653 binding to rat buffy coat homogenate; settings: 150 μg rat buffy coat homogenate; 60 min at 4° C.; read-out: Kd (Scatchard analysis, single class of binding sites)
Method: 21:161]. […] The wash step is repeated once more. The final suspension is divided into aliquots, centrifuged.
The binding of [^3H]-CGP39653 to rat brain membranes is carried out as described by Sills et al. [(1991) Eur. J. Pharmacol. 192:19]. The buffy coat membrane pellet is resuspended in 50 volumes of 5 mM Tris-HCl containing 10 mM EDTA, pH 7.7, and incubated for 10 min. at 37° C. The supernatant is centrifuged at 48,000×g for 10 min. at 4° C. The wash step is repeated once and the pellet is resuspended in 10 ml of 5 mM Tris-HCl containing 10 mM EDTA, pH 7.7. […] Unbound radioactivity is removed with two washes of 3 ml each of ice-cold buffer.
Saturation analysis of [^3H]-CGP39653 binding was carried out by incubating 150 μg of rat buffy coat homogenate with increasing concentrations of [^3H]-CGP39653 for 60 min at 4° C.

[3] = target: T1, human NMDAR1A + NMDAR2A + NMDAR2C (Homo sapiens, UniProt Q05586+Q12879+Q14957); assay: cell-based
T1 construct: other: 50 ng each transcript; co-applied with 100 μM NMDA; mean±S.D. of
Method: as §1
(§2) Recombinant capped transcripts of NMDA receptor subunit cDNAs contained in constructs NMDAR1A, NMDAR1-I63, NMDAR1-I63-Δ204, NMDAR1-Δ1087, NMDAR1-Δ363, and pCMV-26-NotI-24 were synthesized from linearized plasmids using the mCAP RNA Capping Kit (Cat. #200350, Stratagene, Inc., La Jolla, Calif.). For experiments in which NMDAR2A or NMDAR2B and NMDAR1 or NMDAR1-I63 transcripts were co-injected into Xenopus oocytes, the transcripts were synthesized from linearized constructs NMDAR1A, NMDAR1-I63, pCMV-hNMDAR2A-3(53), pCMV-26-NotI-24 and pBS-hNMDAR2B using mMessage mMachine (Ambion, catalog #1344, Austin, Tex.). The mass of each synthesized transcript was determined by UV absorbance and the integrity of each transcript was determined by electrophoresis through an agarose gel.
(§3) Xenopus oocytes were injected with 12.5-50 ng of one or more NMDA receptor subunit transcripts per oocyte. The preparation and injection of oocytes were carried out as described by Dascal [(1987) Crit. Rev. Biochem. 22:317-387]. […]

[4] = target: T2, human NMDAR1A + NMDAR2A (Homo sapiens, UniProt Q05586+Q12879); assay: Two-electrode voltage clamp of Xenopus oocytes co-injected with NMDAR1A and pCMV-hNMDAR2A-3(53) transcripts; format: cell-based
T2 construct: to generate the full-length construct NMDAR1A; Full-length DNAs encoding human NMDA receptor subunits have been inserted into vectors pcDNA1, pMMTVT7(+), pCMV-T7-2 and pCMV-T7-3; expressed in transfected cells; host or cells: Xenopus oocytes co-injected with in vitro transcripts
Method: as §1, §2, §3

T2 sequence (Q12879 23-1464, other chains not shown): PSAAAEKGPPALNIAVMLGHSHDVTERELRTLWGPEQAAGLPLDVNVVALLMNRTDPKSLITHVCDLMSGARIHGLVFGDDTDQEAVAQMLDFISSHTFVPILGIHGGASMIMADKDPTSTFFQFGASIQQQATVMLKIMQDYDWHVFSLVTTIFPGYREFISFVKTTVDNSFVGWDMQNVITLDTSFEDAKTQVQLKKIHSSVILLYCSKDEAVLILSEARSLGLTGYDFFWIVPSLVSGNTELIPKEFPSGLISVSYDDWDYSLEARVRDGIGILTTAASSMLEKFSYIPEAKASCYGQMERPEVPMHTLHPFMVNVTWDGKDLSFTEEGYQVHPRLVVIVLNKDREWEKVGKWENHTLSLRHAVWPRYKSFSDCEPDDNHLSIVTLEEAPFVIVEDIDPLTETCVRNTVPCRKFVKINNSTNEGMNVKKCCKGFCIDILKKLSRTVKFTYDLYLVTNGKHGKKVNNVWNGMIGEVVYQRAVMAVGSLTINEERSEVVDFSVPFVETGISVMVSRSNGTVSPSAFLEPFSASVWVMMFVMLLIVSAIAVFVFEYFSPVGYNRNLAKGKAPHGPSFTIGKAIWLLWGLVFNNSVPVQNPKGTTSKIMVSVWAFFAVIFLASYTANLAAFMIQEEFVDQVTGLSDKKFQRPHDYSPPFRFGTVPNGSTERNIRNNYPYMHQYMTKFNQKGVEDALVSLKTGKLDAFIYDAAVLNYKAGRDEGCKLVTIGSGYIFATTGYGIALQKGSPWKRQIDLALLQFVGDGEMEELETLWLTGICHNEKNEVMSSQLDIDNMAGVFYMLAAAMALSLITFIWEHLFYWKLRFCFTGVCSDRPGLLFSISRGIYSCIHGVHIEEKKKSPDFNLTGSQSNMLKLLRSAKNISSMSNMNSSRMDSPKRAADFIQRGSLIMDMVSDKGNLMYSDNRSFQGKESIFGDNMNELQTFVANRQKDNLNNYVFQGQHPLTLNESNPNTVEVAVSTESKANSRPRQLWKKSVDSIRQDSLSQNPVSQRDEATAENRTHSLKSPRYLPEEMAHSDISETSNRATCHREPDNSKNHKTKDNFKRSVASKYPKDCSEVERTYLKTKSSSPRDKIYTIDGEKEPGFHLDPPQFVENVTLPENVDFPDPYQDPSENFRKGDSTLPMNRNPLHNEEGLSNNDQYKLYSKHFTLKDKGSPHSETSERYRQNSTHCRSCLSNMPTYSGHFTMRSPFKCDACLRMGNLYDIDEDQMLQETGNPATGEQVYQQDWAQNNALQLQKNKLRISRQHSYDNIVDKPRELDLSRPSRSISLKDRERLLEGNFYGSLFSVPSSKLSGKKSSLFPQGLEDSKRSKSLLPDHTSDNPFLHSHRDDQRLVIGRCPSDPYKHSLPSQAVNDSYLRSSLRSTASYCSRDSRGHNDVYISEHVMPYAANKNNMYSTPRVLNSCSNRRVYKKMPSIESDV

## C[C@]12N[C@H](Cc3ccccc31)c1ccccc12 [MK801]
[1]
  Block of NMDA agonist-induced currents, in general: blocked

## [Cl-].[Cl-].[Mg+2] [MgCl2]
[1]
  Block of NMDA agonist-induced currents, in general: blocked

## CCCC(=CC(N)C(=O)O)CP(=O)(O)O (centres unmarked) [[^3H]-CGP39653]
[2]
  Kd: 12.3 ± 0.12 nM

## NCC(=O)O [glycine]
[3]
  EC50: 870 ± 240 nM
[4]
  EC50: 1900 ± 260 nM
